Data on five compounds can be found in patent US20230090111A1, “CXCL8 INHIBITOR AND PHARMACEUTICAL COMPOSITION THEREOF FOR USE IN THE TREATMENT OF CANCER-RELATED FATIGUE” (Dompe' farmaceutici SpA, priority 2020, published 2023).

Experiment [1] deals with dogs with osteosarcoma metastatic to the lungs. The experiment can be described thus: Prospective pilot study: QoL of dogs given doxorubicin, oclacitinib and ladarixin. In kind it is in vivo. Details: mqol gooddavs / mqol_sleeps / mqol_depressed / mqol_eats / mqol_drinks / mqol_moves / mqol_lays / mqol_active / mqol_play / mqol_presence / mqol_enjoyslife: scale not given here. The settings on record: for mqol gooddavs / mqol_active / mqol_depressed / mqol_drinks / mqol_eats / mqol_enjoyslife / mqol_lays / mqol_moves / mqol_play / mqol_presence / mqol_sleeps: with doxorubicin+oclacitinib. The protocol:
A prospective pilot study was conducted to evaluate whether the addition of ladarixin to doxorubicin and oclacitinib mitigates the adverse event profile associated with doxorubicin which includes fatigue, lethargy, anorexia and a general decrease in quality of life (QoL).
A cohort of 5 dogs with osteosarcoma metastatic to the lungs was studied.
In this study, dogs received doxorubicin at […] IV, oclacitinib at 0.4-0.6 mg/kg orally twice per day (label dose) and ladarixin at 15 mg/kg twice per day.
A well validated QoL for dogs with cancer was used (Giuffrida et al., J Am Vet Med Assoc, 252(9): 1073-1083) to assess changes in performance status and quality of life during the course of the study. The QoL values were reported as a numerical value and tracked over each study visit. All owners were required to maintain a diary to chart the administration of medications, note any changes in behaviour, document appetite and energy levels, and identify any other changes in constitutional changes. Owners also recorded a daily performance status (scale from 0 to 5).

The test system of experiment [2] is cancer-related fatigue (CRF). The note with it: A. Spathis et al., 2014; cited from earlier work.
For experiment [3] the following is noted: oclacitinib alone; cited from earlier work.
Experiment [4] deals with patients with metastatic triple negative breast cancer (TNBC). The experiment can be described thus: Randomized, double-blind, placebo-controlled phase 2 study (FRIDA): fatigue as treatment emergent adverse event (NCI-CTCAE 4.03). In kind it is in vivo, human. On the procedure: The study was conducted with 56 sites actively screening patients in the United States of America, Italy, France, Belgium, Spain, Czech Republic and Poland.
Two sub-groups of patients were studied: newly diagnosed metastatic patients and patients that had relapsed following a prior (neo)adjuvant chemotherapy regimen. Amongst other inclusion criteria, to be able to participate in the study, subjects were to have a Zubrod/ECOG Performance Status of 0 or 1 (0=Fully active; no performance restrictions 1=Strenuous physical activity restricted; fully ambulatory and able to carry out light work).
There was no limit to study treatment duration and patients remained in the study until disease progression, withdrawal of consent or unacceptable toxicity, whichever occurred first.
Investigators reported any adverse events experienced by study patients according to the NCI-CTCAE version 4.03. Toxicity was defined according to the grading scale for each parameter. According to this scale, the presence and intensity of fatigue is defined as follows: • Grade 1: Fatigue relieved by rest • Grade 2: Fatigue not relieved by rest, limiting instrumental ADL • Grade 3: Fatigue not relieved by rest, limiting self care ADL • where instrumental ADL refers to preparing meals, shopping for groceries or clothes, using the telephone, managing money, and the like and self care ADL refer to bathing, dressing and undressing, feeding self, using the toilet, taking medications, but not bedridden.
The distributions of fatigue as a treatment emergent adverse event (TEAE) irrespective of relationship with study treatment were compared among treatment groups using the Chi-squared test (Table 1).

[5] abbreviates: D0, one value per dog (Record ID 1-5).
Setting [6] is: D7, one value per dog (Record ID 1-5).
Where [7] appears, read: D14, one value per dog (Record ID 1-5).
The mark [8] stands for this setting: D21, one value per dog (Record ID 3-5).
Setting [9] is: judged by investigators under double-blind conditions, Chi-squared P 0.020.
Where [10] appears, read: paclitaxel plus reparixin (Group 1) or placebo (Group 2), Chi-squared P 0.003.

“And” between values parts separate entries of the source, which are not always exact repeats. Equal entries are not always repeated. “Also recorded” adds a separate entry of the source.

Consider `C[C@@H](C(=O)NS(C)(=O)=O)c1ccc(OS(=O)(=O)C(F)(F)F)cc1` [ladarixin], for which the “total QoL score” value in experiment [1] (5 dogs, ladarixin with doxorubicin and oclacitinib) is “over 100”. In experiment [1] (setting [5]), the mqol gooddavs was 5 (4×) and 4; the mqol_active was 5 (3×) and 2 and 4; the mqol_depressed was 5 (3×) and 4 (2×); the mqol_drinks was 5 (4×) and 4. Moreover, in experiment [1] (setting [5]), the mqol_eats is 5 (4×) and 4; the mqol_enjoyslife was 5 (4×) and 4; the mqol_lays was 5 (4×) and 2; the mqol_moves is 5 (4×) and 2. In experiment [1] (setting [5]), the mqol_play was 5 (4×) and 4; the mqol_presence is 5 (4×) and 4; the mqol_sleeps is 4 and 3 and 5 (3×). In experiment [1] (setting [6]), the mqol gooddavs is 4 and 5 (4×); the mqol_active is given as 5; the mqol_depressed is 4 and 5 (4×); the mqol_drinks was determined as 5. Moreover, in experiment [1] (setting [6]), the mqol_eats is 5 (4×) and 3; the mqol_enjoyslife is listed as 5; the mqol_lays was 4 and 5 (4×); the mqol_moves is 4 and 5 (4×). For the same compound, in experiment [1] (setting [6]), the mqol_play is 5 (4×) and 4; the mqol_presence is given as 5; the mqol_sleeps was 4 (2×) and 2 and 1 and 5. In addition, in experiment [1] (setting [7]), the mqol gooddavs was determined as 5; the mqol_active is 5 (3×) and 4 and 3; the mqol_depressed was 5 (4×) and 4; the mqol_drinks was determined as 5. In experiment [1] (setting [7]), the mqol_eats was found to be 5; the mqol_enjoyslife came out at 5; the mqol_lays was 5 (4×) and 4; the mqol_moves is 5 (2×) and 4 (3×). Also, in experiment [1] (setting [7]), the mqol_play is on record as 5; the mqol_presence was 5 (4×) and 4; the mqol_sleeps is 5 (2×) and 4 and 3 (2×). In addition, in experiment [1] (setting [8]), the mqol gooddavs is 5 (2×) and 4; the mqol_active is 5 (2×) and 2; the mqol_depressed was 5 (2×) and 4; the mqol_drinks was 5 (2×) and 4. Moreover, in experiment [1] (setting [8]), the mqol_eats is 5 (2×) and 4; the mqol_enjoyslife is 5 (2×) and 4; the mqol_lays was 5 (2×) and 2; the mqol_moves was 4 and 3 and 5. In addition, in experiment [1] (setting [8]), the mqol_play is 5 (2×) and 4; the mqol_presence was 5 (2×) and 4; the mqol_sleeps was 5 (2×) and 3. The “Effect on severity of fatigue associated with doxorubicin treatment (in words)” value in experiment [1] (ladarixin added to doxorubicin and oclacitinib) is on record as “reduced the severity of the known fatigue induced by the treatment with doxorubicin; also recorded: reduced the severity of the known fatigue associated to the treatment”.
For the compound `NC(=O)C[S+]([O-])C(c1ccccc1)c1ccccc1` (stereo not drawn) [modafimil], in experiment [2], the “Benefit over placebo in CRF (in words)” value is reported as “no benefit over placebo”.
As to `CNS(=O)(=O)C[C@H]1CC[C@H](N(C)c2ncnc3[nH]ccc23)CC1` [oclacitinib], the “Ability to reduce severity of fatigue associated with chemotherapy (in words)” value in experiment [3] is “not able to reduce the severity of fatigue associated with chemotherapy”.
Regarding `CC(=O)O[C@H]1C(=O)[C@@]2(C)[C@H]([C@H](OC(=O)c3ccccc3)[C@]3(O)C[C@H](OC(=O)[C@H](O)[C@@H](NC(=O)c4ccccc4)c4ccccc4)C(C)=C1C3(C)C)[C@]1(OC(C)=O)CO[C@@H]1C[C@@H]2O` [paclitaxel], in experiment [4] (in vivo), the “Subjects with severe (Grade 3) treatment-related fatigue, number” value is “two” and the “Subjects with severe (Grade 3) treatment-related fatigue, percent” value was 3.3%. In experiment [4] (setting [9]), the “Fatigue as TEAE at least possibly related to study treatment: No, number of subjects” value was determined as 43; the “Fatigue as TEAE at least possibly related to study treatment: No, percent of subjects” value amounted to 71.7%; the “Fatigue as TEAE at least possibly related to study treatment: Yes, number of subjects” value was 17 subjects; the “Fatigue as TEAE at least possibly related to study treatment: Yes, percent of subjects” value turned out to be 28.3%. In addition, in experiment [4] (paclitaxel 80 mg/m2 i.v. plus reparixin 1200 mg t.i.d. (Group 1) or placebo (Group 2), Chi-squared P 0.003), the “Fatigue as TEAE irrespective of relationship with study treatment: Yes, number of subjects” value is on record as 26 subjects. In experiment [4] (setting [10]), the “Fatigue as TEAE irrespective of relationship with study treatment: No, number of subjects” value was 34; the “Fatigue as TEAE irrespective of relationship with study treatment: No, percent of subjects” value came to 56.7%; the “Fatigue as TEAE irrespective of relationship with study treatment: Yes, percent of subjects” value is listed as 43.3%.
`CC(C)Cc1ccc([C@@H](C)C(=O)NS(C)(=O)=O)cc1` [reparixin, R-(−)-2-(4-isobutylphenyl)propionyl methansulfonamide]: the “Severity of fatigue in patients experiencing fatigue (NCI-Common Toxicity Criteria Grade)” value in experiment [4] (all patients experiencing fatigue, mild and moderate) is given as 1-2 Grade. Further, in experiment [4] (paclitaxel plus reparixin compared with paclitaxel and placebo), the “Effect on incidence and severity of fatigue (in words)” value was “beneficial effect on incidence and severity of cancer-related fatigue; also recorded: significantly lower incidence and severity of treatment-related fatigue”.
